We go through one molecule from patent US20260207754A1, “MET PROTEIN DEGRADATION INDUCING COMPOUND” (ONCOZEN CO., LTD., priority 2022, published 2026).

Holding throughout (format): cell-based
Assay [1] has as its system c-MET (total form). The assay can be described thus: Target protein degradation assay (Western blot). The settings on record: H596 cells, Western blot; standard concentration and time 5 μM, 72 hours. As to the method: This experiment assessed the tendency and extent of degradation of the target protein c-MET (total form) in cells treated with each of the compounds prepared in Examples 1 to 11.
(§1) Cells (H596 or H1437 cells) were seeded in Φ60 or Φ100 culture dishes to reach 5×10^5 or 1×10^6 cells, and then cultured for more than 12 hours. After removing the media, the cells were treated with each respective compound prepared in Examples 1 to 11 at various conditions-concentrations (0, 2.5, 5, 10 μM), time (0, 6, 8, 24, 48, 72 hours), and standard concentration and time (5 μM, 72 hours) for all compounds. The cells were then harvested, lysed using RIPA buffer, and centrifuged (4° C., 13000 rpm, 15 min), to collect the supernatant in a new tube. Protein quantification was performed using the Bradford Assay, and samples were prepared for loading by boiling at 95° C. Western blotting was performed. The samples were loaded onto an SDS polyacrylamide gel (8% concentration). Electrophoresis was conducted at 80V, and then switched to 100-120V (when the loaded sample moves from the stacking gel to the running gel). After electrophoresis, the polyacrylamide gel was transferred onto the membrane (using transfer buffer diluted at 10× transfer buffer:methanol:D.W=1:2:7 ratio, cold, for 100V, 1 hour or 80V, 2 hours). The membrane was blocked with 5% skim milk for 30 minutes and washed with PBS-T (phosphate-buffered saline with Tween 20) buffer. The primary antibody was diluted in 5% BSA+NaN3 solution and reacted with the membrane for over 12 hours, followed by washing with PBS-T and reaction with 5% skim milk+secondary antibody for 1 hour and 30 minutes. After washing with PBS-T, the ECL solution was reacted with the membrane, and the bands were detected using an imaging device to confirm the degradation of the target protein c-MET.
On the technique in general: A western blot detects proteins with antibodies after separation by electrophoresis.

In a further assay the test system is H596 cells. The assay can be described thus: Cell viability assay (CCK8). The settings on record: Homo sapiens, NCI-H596, 72 h, three days treatment. As to the method: (§2) This experiment involves treating cells with each of the compounds prepared in Examples 1 to 11, and then observing changes in cell cytotoxicity and cell count. The IC50 values, derived from the changes in cell count, can be used to assess the cancer cell growth inhibition and anti-cancer effects of the compound of the present invention.
(§3) Cells (H596 or H1437 cells) were seeded in a 96-well plate at 3×10^3 cells per well and then cultured for more than 12 hours. After removing the media, each well was treated with 200 μl of the respective diluted compounds prepared in Examples 1 to 11. Three days later, the media was removed, and each well was treated with 10 μl of CCK8 reagent+90 μl of media. After 3-4 hours of reaction, the absorbance was measured using an ELISA reader at a wavelength of 450 nm.

The subject of a further assay is H1437 cells. The assay is described as follows: Cell viability assay (CCK8). The settings on record: Homo sapiens, NCI-H1437, 72 h, three days treatment. The procedure: as §2, §3
Assay [2] relates to c-MET (total form). The assay is described as follows: Target protein degradation assay (Western blot). The settings on record: H1437 cells, standard concentration and time 5 μM, 72 hours. As to the method: as §1, with “After removing the media, the cells were treated with each respective compound prepared in Examples 1 to 11 at various conditions-concentrations (0, 2.5, 5, 10 μM), time (0, 6, 8, 24, 48, 72 hours), and standard concentration and time (5 μM, 72 hours) for all compounds.” left out

Broadly, the IC50 is the concentration that inhibits the measured activity by half. Turning to `CC(C)c1cc(C(=O)N(C)Cc2ccc(C(=O)NCCCCC(=O)N3CCC(COc4cnc(-c5cccc(Cn6nc(-c7cccc(C#N)c7)ccc6=O)c5)nc4)CC3)cc2)c(O)cc1O` [OZD-MET 11, N-{[4-({5-[4-({[2-(3-{[3-(3-cyanophenyl)-6-oxopyridazin-1-yl]methyl}phenyl)pyrimidin-5-yl]oxy}methyl)piperidin-1-yl]-5-oxopentyl}carbamoyl)phenyl]methyl}-2,4-dihydroxy-5-isopropyl-N-methylbenzamide], the “c-MET degradation H596” value in the assay with c-MET (total form) [1] was 2 (10% < degradation < 50%: 2). Further, the half-inhibitory concentration (IC50) with H596 cells worked out at 3.99 µM; with H1437 cells it was 3.44 µM. Further, the “c-MET degradation H1437” value in the assay on c-MET (total form) [2] is on record as 1 (50% < degradation: 1).
